Common to all, as to format: cell-based
For test [1], the system named is PARP cleavage in cells (NCI-H929, Z138, MM.1S, A-375). In words: Analysis of PARP cleavage by Western blotting. The note with it: compound tested at 5 μM; Western blot. Put shortly:
(§1)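 NCI-H929, Z138, MM.1S and A-375 cells were treated with compounds at 5 μM, and lysates were Western blotted with anti-Mcl-1 and anti-PARP antibodies, quantified by infrared fluorescence. Activity is a significant drop in Mcl-1 and the appearance of cleaved PARP, each relative to vehicle-treated cells.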
(In general: Immunoblotting shows a protein as a band on a membrane.)

Test [2] concerns Mcl-1 expression in cells (NCI-H929, Z138, MM.1S, A-375). In words: Analysis of Mcl-1 expression by Western blotting. The note with it: compound tested at 5 μM; Western blot. The procedure, abridged:
as §1

Test [3] concerns the target T1, DUB activity in cells (NCI-H929, Z138, MM.1S, A375) (Homo sapiens, UniProt Q93008).
T1 construct: endogenous in cells; host or cells: NCI-H929, Z138, MM.1S, A375
In words: HA-Ubiquitin-Vinylsulfone (HA-Ub-VS) cell labeling assay. The note with it: compound tested at 5 μM; HA-Ub-VS labeling of USP9x in cells. The procedure, abridged:
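NCI-H929, Z138, MM.1S or A375 cells (1–2×10^6) treated 2–6 h at 37 °C with compound in 0.5% DMSO, here 5 μM. Lysates labeled with HA-Ub-VS for 15–60 min at 37 °C. Labeled DUBs resolved by SDS-PAGE and quantified by anti-HA and anti-β-actin immunoblot with infrared detection.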

We go through 25 compounds from US20170088520A1, “DEUBIQUITINASE INHIBITORS” (PharmAkea, Inc., priority 2014, published 2017).

Molecules are shown by their SMILES.

T1 sequence (Q93008 whole entry): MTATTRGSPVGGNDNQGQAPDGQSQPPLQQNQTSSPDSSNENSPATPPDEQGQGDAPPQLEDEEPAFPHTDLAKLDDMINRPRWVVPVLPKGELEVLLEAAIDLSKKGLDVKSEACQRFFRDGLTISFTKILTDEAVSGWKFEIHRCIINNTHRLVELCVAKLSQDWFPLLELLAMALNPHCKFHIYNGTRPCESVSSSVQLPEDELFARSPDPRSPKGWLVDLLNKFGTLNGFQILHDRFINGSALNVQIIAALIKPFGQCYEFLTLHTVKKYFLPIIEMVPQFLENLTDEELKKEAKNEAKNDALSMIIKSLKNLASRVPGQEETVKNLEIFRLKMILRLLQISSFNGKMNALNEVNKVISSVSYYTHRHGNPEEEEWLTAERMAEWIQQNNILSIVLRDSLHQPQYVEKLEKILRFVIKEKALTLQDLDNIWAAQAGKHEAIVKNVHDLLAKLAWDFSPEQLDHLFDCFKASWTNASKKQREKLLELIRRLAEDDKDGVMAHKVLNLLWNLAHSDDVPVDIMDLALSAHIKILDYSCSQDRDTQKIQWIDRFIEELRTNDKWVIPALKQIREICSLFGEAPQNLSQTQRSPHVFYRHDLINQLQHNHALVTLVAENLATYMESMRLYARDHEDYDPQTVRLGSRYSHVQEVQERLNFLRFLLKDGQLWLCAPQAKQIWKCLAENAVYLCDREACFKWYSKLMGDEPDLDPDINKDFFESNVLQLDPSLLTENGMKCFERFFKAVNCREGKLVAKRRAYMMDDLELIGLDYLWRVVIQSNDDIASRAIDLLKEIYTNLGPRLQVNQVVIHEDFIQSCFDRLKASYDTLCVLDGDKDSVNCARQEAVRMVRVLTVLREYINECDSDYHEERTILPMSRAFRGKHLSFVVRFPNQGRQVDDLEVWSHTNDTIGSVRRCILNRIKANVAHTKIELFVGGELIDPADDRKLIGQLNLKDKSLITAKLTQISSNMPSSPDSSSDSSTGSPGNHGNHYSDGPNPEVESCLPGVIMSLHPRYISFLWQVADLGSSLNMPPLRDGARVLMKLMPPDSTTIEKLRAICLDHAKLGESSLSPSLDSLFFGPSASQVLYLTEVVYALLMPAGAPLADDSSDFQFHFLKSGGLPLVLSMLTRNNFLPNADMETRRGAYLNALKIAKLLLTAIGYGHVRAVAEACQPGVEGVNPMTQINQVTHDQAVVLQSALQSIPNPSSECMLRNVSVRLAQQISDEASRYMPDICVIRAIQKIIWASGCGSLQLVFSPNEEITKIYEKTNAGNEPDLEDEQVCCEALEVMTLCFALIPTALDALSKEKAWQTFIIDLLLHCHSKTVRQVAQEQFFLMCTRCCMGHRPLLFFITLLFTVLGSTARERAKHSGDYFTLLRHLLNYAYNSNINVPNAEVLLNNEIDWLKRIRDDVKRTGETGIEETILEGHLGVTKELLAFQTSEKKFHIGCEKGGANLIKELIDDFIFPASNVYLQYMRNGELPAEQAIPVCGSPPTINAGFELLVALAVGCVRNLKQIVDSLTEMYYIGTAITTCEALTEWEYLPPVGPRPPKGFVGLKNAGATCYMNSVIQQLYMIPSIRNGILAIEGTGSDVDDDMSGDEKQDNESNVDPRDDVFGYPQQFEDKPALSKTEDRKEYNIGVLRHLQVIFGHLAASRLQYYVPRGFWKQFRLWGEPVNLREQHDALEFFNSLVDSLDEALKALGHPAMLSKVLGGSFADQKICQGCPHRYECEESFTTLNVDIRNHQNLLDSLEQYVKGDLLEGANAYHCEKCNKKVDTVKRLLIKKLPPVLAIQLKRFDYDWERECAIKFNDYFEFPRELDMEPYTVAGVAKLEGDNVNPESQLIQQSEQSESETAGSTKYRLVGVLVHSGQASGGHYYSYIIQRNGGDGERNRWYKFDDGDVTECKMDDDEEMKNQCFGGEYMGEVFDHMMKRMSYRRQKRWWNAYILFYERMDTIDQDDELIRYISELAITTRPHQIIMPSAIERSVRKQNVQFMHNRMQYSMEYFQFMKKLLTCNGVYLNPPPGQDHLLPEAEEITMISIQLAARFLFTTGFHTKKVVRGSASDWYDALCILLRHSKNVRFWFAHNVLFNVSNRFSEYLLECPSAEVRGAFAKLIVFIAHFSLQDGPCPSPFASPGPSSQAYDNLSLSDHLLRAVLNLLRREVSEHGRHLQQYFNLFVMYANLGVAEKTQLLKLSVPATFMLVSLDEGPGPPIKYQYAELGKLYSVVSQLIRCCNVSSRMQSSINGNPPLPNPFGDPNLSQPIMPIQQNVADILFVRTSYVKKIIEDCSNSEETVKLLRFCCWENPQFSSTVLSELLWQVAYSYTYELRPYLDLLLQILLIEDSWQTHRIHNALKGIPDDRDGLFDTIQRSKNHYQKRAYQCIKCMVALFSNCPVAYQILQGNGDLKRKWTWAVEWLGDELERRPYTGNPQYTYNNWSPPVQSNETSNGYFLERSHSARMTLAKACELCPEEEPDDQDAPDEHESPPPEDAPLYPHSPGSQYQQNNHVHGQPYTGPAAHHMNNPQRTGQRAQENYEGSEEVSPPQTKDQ

For the compound `N#C/C(=C\c1cccc(-c2ccc(CC(=O)O)cc2)n1)C(=O)NC1(c2ccccc2)CCCC1` [Compound 40], the “PARP cleavage % Inhibition” value in test [1] is recorded as “C (C is 25% to 50% inhibition)”. Moreover, the inhibition at 5 µM in test [2] and in test [3] was less than 25% each time.
Consider `CCOC(=O)c1ccc(-c2ccc(C3(NC(=O)/C(C#N)=C/c4ncc(Br)cc4Br)CCCC3)cc2)cc1` [Compound 32, (E)-ethyl 4′-(1-(2-cyano-3-(3,5-dibromopyridin-2-yl)acrylamido)cyclopentyl)-[1,1′-biphenyl]-4-carboxylate], for which, in test [1], the “PARP cleavage % Inhibition” value was “D (D is <25% inhibition)”. Also, the inhibition at 5 µM in test [2] and in test [3] was less than 25% throughout.
As for `N#C/C(=C\c1ncc(Br)cc1Br)C(=O)NC1(c2ccccc2)CCCCCC1` [Compound 25, (E)-2-Cyano-3-(3,5-dibromopyridin-2-yl)-N-(1-phenylcycloheptyl)acrylamide], the “PARP cleavage % Inhibition” value in test [1] is “A (A is ≧75% inhibition)”. Also, the inhibition at 5 µM in test [2] and in test [3] was not below 75% in each case.
Consider `N#C/C(=C\c1cccc(Br)n1)C(=O)NC1(c2ccc(CO)cc2)CCCC1` [Compound 86, (E)-3-(6-bromopyridin-2-yl)-2-cyano-N-(1-(4-(hydroxymethyl)phenyl)cyclopentyl)acrylamide], for which the “PARP cleavage % Inhibition” value in test [1] was “B (B is 50% to 75% inhibition)”. For the same compound, the inhibition at 5 µM was less than 25% in test [2] and 25 to 50% in test [3].
As for `N#C/C(=C\c1ncc(Br)cc1Br)C(=O)NC1(c2ccc(-c3ccc(N4CCCCC4)nc3)cc2)CCCC1` [Compound 69, (E)-2-cyano-3-(3,5-dibromopyridin-2-yl)-N-(1-(4-(6-(piperidin-1-yl)pyridin-3-yl)phenyl)cyclopentyl)acrylamide], the “PARP cleavage % Inhibition” value in test [1] is listed as “D (D is <25% inhibition)”. The inhibition at 5 µM in test [2] and in test [3] was less than 25% each time.
In the case of `N#C/C(=C\c1cccc(Br)n1)C(=O)NC1(c2ccc(-c3ccc(CC(=O)O)cc3)cc2)CCCC1` [Compound 90, (E)-2-(4′-(1-(3-(6-bromopyridin-2-yl)-2-cyanoacrylamido)cyclopentyl)-[1,1′-biphenyl]-4-yl)acetic acid], the “PARP cleavage % Inhibition” value in test [1] is recorded as “D (D is <25% inhibition)”. The inhibition at 5 µM in test [2] is 25 to 50%; in test [3], less than 25%.
For `N#C/C(=C\c1ncccc1F)C(=O)NC1(c2ccccc2)CCCC1` [Compound 8, (E)-3-(3-Fluoropyridin-2-yl)-2-cyano-N-(1-phenylcyclopentyl)acrylamide], in that order: “D (D is <25% inhibition)”, less than 25% and less than 25%.
With `N#C/C(=C\c1cccc(Br)n1)C(=O)NC1(c2cccc(Br)c2)CCCC1` [Compound 58, (E)-N-(1-(3-bromophenyl)cyclopentyl)-3-(6-bromopyridin-2-yl)-2-cyanoacrylamide], the “PARP cleavage % Inhibition” value in test [1] was “A (A is ≧75% inhibition)”. The inhibition at 5 µM in test [2] and in test [3] was not below 75% each time.
With `COC(=O)c1cccc(-c2cccc(/C=C(\C#N)C(=O)NC3(c4ccccc4)CCCC3)n2)c1` [Compound 34], the “PARP cleavage % Inhibition” value in test [1] is recorded as “A (A is ≧75% inhibition)”. Further, the inhibition at 5 µM lay in the range of 25 to 50% in test [2] and 50 to 75% in test [3].
For `N#C/C(=C\c1nc(Br)ccc1F)C(=O)NC1(c2ccccc2)CCCC1` [Compound 6, (E)-3-(3-Fluoro-6-bromopyridin-2-yl)-2-cyano-N-(1-phenylcyclopentyl)acrylamide] the same measures were “A (A is ≧75% inhibition)”, not below 75% and not below 75%.
For `N#C/C(=C\c1cccc(Br)n1)C(=O)NC1(c2ccc(-c3ccc(C(=O)O)cc3)cc2)CCCC1` [Compound 91, (E)-4′-(1-(3-(6-bromopyridin-2-yl)-2-cyanoacrylamido)cyclopentyl)-[1,1′-biphenyl]-4-carboxylic acid], in that order: “A (A is ≧75% inhibition)”, not below 75% and 25 to 50%.
For `COC(=O)c1cncc(-c2cccc(/C=C(\C#N)C(=O)NC3(c4ccccc4)CCCC3)n2)c1` [Compound 33] the same measures were “A (A is ≧75% inhibition)”, not below 75% and 50 to 75%.
For `N#C/C(=C\c1ncc(Br)cc1Br)C(=O)NC1(c2ccc(-c3ccc(C(F)(F)F)nc3)cc2)CCCC1` [Compound 68, (E)-2-cyano-3-(3,5-dibromopyridin-2-yl)-N-(1-(4-(6-(trifluoromethyl)pyridin-3-yl)phenyl)cyclopentyl)acrylamide], the “PARP cleavage % Inhibition” value in test [1] is “A (A is ≧75% inhibition)”. In addition, the inhibition at 5 µM in test [2] and in test [3] was not below 75% throughout.
For `N#C/C(=C\c1ncc(Br)cc1Br)C(=O)NC1(c2ccccc2)CCCC1` [Compound 4, (E)-3-(3,5-Dibromopyridin-2-yl)-2-cyano-N-(1-phenylcyclopentyl)acrylamide], in test [1], the “PARP cleavage % Inhibition” value was “A (A is ≧75% inhibition)”. In addition, the inhibition at 5 µM in test [2] and in test [3] was not below 75% each time.
For the compound `N#C/C(=C\c1ncc(Cl)cc1F)C(=O)NC1(c2ccccc2)CCCC1` [Compound 5, (E)-3-(3-Fluoro-5-chloropyridin-2-yl)-2-cyano-N-(1-phenylcyclopentyl)acrylamide], in test [1], the “PARP cleavage % Inhibition” value is reported as “A (A is ≧75% inhibition)”. In addition, the inhibition at 5 µM in test [2] and in test [3] was not below 75% each time.
For the compound `N#C/C(=C\c1ncc(Br)cc1Br)C(=O)NC1(c2ccc(Cl)cc2)CCCC1` [Compound 22, (E)-N-(1-(4-Chlorophenyl)cyclopentyl)-2-cyano-3-(3,5-dibromopyridin-2-yl)acrylamide], the “PARP cleavage % Inhibition” value in test [1] is on record as “A (A is ≧75% inhibition)”. Moreover, the inhibition at 5 µM in test [2] and in test [3] was not below 75% in each case.
Turning to `N#C/C(=C\c1cccc(Br)n1)C(=O)NC1(c2ccc(-c3ccc4[nH]ccc4c3)cc2)CCCC1` [Compound 96, (E)-N-(1-(4-(1H-indol-5-yl)phenyl)cyclopentyl)-3-(6-bromopyridin-2-yl)-2-cyanoacrylamide], the “PARP cleavage % Inhibition” value in test [1] is “A (A is ≧75% inhibition)”. The inhibition at 5 µM in test [2] and in test [3] was 50 to 75% each time.
Take `CN(C)C(=O)c1ccc(C2(NC(=O)/C(C#N)=C/c3ncc(Br)cc3Br)CCCC2)cc1` [Compound 66, (E)-4-(1-(2-cyano-3-(3,5-dibromopyridin-2-yl)acrylamido)cyclopentyl)-N,N-dimethylbenzamide]: the “PARP cleavage % Inhibition” value in test [1] is reported as “A (A is ≧75% inhibition)”. Moreover, the figures for the inhibition at 5 µM in test [2] and in test [3] were not below 75% and 50 to 75%, respectively.
`N#C/C(=C\c1cccc(C2CC2)n1)C(=O)NC1(c2ccc(-c3ccc(CC(=O)O)cc3)cc2)CCCC1` [Compound 93, (E)-2-(4′-(1-(2-cyano-3-(6-cyclopropylpyridin-2-yl)acrylamido)cyclopentyl)-[1,1′-biphenyl]-4-yl)acetic acid]: the “PARP cleavage % Inhibition” value in test [1] is on record as “A (A is ≧75% inhibition)”. The inhibition at 5 µM in test [2] is not below 75%; in test [3], 25 to 50%.
For `N#C/C(=C\c1cccc(-c2ccc(OCC(=O)O)cc2)n1)C(=O)NC1(c2ccccc2)CCCC1` [Compound 36] the same measures were “D (D is <25% inhibition)”, less than 25% and less than 25%.
For `N#C/C(=C\c1ncc(Br)cc1Br)C(=O)NC1(c2ccccc2)CCCCC1` [Compound 23, (E)-2-Cyano-3-(3,5-dibromopyridin-2-yl)-N-(1-phenylcyclohexyl)acrylamide], the “PARP cleavage % Inhibition” value in test [1] is recorded as “A (A is ≧75% inhibition)”. Also, the inhibition at 5 µM in test [2] and in test [3] was not below 75% in each case.
In the case of `N#C/C(=C\c1cccc(-c2ccc(N3CCCCC3)nc2)n1)C(=O)NC1(c2ccccc2)CCCC1` [Compound 65, (E)-2-cyano-N-(1-phenylcyclopentyl)-3-(6′-(piperidin-1-yl)-[2,3′-bipyridin]-6-yl)acrylamide], the “PARP cleavage % Inhibition” value in test [1] is given as “B (B is 50% to 75% inhibition)”. Also, the figures for the inhibition at 5 µM in test [2] and in test [3] were less than 25% and 25 to 50%, respectively.
For `CC(C)(C)c1ccc(C2(NC(=O)/C(C#N)=C/c3ncc(Br)cc3Br)CCCC2)cc1` [Compound 27, (E)-N-(1-(4-(tert-butyl)phenyl)cyclopentyl)-2-cyano-3-(3,5-dibromopyridin-2-yl)acrylamide] the same measures were “A (A is ≧75% inhibition)”, not below 75% and not below 75%.
For `CCCCCCCCCCCCCC(=O)OCc1ccc(C2(NC(=O)/C(C#N)=C/c3cccc(Br)n3)CCCC2)cc1` [Compound 84, (E)-4-(1-(3-(6-bromopyridin-2-yl)-2-cyanoacrylamido)cyclopentyl)benzyl tetradecanoate], in that order: “D (D is <25% inhibition)”, less than 25% and less than 25%.
For `COc1ccc(/C=C(\C#N)C(=O)NC2(c3ccccc3)CCCC2)cc1O` [Compound 14, (E)-3-(3-Hydroxy-4-methoxyphenyl)-2-cyano-N-(1-phenylcyclopentyl)acrylamide] the same measures were “D (D is <25% inhibition)”, less than 25% and less than 25%.

One may read the inhibition as the drop in the measured response relative to a control, in per cent. A low value points to a response near the control.
